Assay results from publication PMC7044277 (Nature Communications, 2020).
Values joined by “and” are separate entries in the source; they are usually repeats but may differ in a detail not shown here. Equal values may be shown once.

Tests used:
Type in all cases: cell-based
320 non-olfactory GPCRs [1] = target: T1, 320 non-olfactory GPCRs (Homo sapiens, UniProt O95838)
T1 construct: expressed in transfected cells; host or cells: HTLA cells

320 non-olfactory GPCRs [2] = target: 320 non-olfactory GPCRs (Homo sapiens, UniProt P30411)
320 non-olfactory GPCRs (Homo sapiens, UniProt P30411), sequence (P30411 whole entry): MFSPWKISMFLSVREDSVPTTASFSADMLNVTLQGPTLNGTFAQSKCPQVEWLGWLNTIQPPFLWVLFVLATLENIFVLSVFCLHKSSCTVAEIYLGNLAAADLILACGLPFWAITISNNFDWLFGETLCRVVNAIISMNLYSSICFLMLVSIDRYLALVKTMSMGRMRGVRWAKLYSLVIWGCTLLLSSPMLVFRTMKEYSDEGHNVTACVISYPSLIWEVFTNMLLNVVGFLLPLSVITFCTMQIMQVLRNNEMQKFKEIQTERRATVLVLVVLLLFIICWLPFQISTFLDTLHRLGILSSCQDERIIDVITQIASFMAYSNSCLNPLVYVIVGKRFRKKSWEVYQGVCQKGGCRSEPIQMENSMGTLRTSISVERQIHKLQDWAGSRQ

320 non-olfactory GPCRs [3] = target: T2, 320 non-olfactory GPCRs (Homo sapiens, UniProt P24530)
T2 construct: expressed in transfected cells; host or cells: HTLA cells
T2 sequence (P24530 27-442): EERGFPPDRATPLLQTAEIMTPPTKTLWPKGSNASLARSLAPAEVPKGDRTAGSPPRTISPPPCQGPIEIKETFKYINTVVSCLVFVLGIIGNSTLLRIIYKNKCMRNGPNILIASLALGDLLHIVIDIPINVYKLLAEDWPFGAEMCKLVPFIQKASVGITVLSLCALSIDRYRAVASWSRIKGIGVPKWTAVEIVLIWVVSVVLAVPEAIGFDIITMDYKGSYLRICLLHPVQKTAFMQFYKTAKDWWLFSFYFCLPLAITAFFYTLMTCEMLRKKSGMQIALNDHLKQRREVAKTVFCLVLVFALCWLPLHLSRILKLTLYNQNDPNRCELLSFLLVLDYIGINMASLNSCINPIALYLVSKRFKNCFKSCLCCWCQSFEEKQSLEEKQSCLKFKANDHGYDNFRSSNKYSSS

320 non-olfactory GPCRs [4] = target: T3, 320 non-olfactory GPCRs (Homo sapiens, UniProt Q9H1Y3); conditions: receptor OPN3; replicate values, Fig_4g
T3 construct: expressed in transfected cells; host or cells: HTLA cells
T3 sequence (Q9H1Y3 whole entry): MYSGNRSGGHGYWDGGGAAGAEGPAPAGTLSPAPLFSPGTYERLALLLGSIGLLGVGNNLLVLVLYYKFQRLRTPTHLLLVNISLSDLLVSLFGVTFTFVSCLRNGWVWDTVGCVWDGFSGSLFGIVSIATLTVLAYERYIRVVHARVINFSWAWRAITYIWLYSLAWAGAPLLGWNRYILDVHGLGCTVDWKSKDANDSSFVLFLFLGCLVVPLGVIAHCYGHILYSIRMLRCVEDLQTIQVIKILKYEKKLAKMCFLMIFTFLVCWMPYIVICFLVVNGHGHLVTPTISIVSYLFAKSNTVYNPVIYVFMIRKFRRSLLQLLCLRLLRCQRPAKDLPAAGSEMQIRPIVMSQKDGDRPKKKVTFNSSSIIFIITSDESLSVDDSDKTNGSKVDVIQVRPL
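For Fold of Basal in this document: compound tested at 1 µM final concentration.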
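For GPCRome agonism screen response in this document: fold over basal response of each receptor without drug.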

T1 sequence (O95838 whole entry): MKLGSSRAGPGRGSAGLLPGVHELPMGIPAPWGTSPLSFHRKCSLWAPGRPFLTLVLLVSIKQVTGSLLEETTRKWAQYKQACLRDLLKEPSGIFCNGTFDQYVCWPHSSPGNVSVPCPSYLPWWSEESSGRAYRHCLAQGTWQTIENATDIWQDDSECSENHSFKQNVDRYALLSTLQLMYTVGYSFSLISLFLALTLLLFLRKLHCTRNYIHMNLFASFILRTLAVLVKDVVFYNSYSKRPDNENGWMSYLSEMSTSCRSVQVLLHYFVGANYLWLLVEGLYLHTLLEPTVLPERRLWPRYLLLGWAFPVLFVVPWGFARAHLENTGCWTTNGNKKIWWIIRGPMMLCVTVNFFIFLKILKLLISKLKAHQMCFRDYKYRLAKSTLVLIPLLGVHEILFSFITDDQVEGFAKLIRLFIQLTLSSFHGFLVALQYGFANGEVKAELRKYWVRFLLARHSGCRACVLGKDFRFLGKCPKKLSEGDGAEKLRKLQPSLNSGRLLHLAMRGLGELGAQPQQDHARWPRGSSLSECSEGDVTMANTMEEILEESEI

CCOc1cccc2cc(C(C)NCC3(O)CCCCC3)oc12 (stereo not shown) [O4LE6]
Fold of Basal (320 non-olfactory GPCRs [1]): 0.5783 and 0.9087 and 0.8921 and 0.8331 | Fold of Basal (320 non-olfactory GPCRs [2]): 1.112 and 0.7321 and 0.9055 and 1.0914 | Fold of Basal (320 non-olfactory GPCRs [3]): 0.7302 and 0.8478 and 0.8324 and 1.412 | GPCRome agonism screen response (320 non-olfactory GPCRs [4]): 1.462 and 1.944 and 1.753 and 1.142
